Experimental data: the supplement of paper PMC10307832

Columns and labels:
Experiment in all cases: relative viability (nuclei count vs DMSO), 5 days (fraction); higher = more cells survive
Entinostat + Navitoclax = compound: Nc1ccccc1NC(=O)c1ccc(CNC(=O)OCc2cccnc2)cc1 [Entinostat] + CC1(C)CCC(c2ccc(Cl)cc2)=C(CN2CCN(c3ccc(C(=O)NS(=O)(=O)c4ccc(N[C@H](CCN5CCOCC5)CSc5ccccc5)c(S(=O)(=O)C(F)(F)F)c4)cc3)CC2)C1 [Navitoclax] (partner 0.5 µM)
Procedure, shortened: (§1)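 Lung cancer cell lines in 1536-well plates were dosed by pin tool the day after seeding, either with one drug alone or with a fixed anchor-drug dose plus five library-drug doses (not always all listed) in √10 steps. After 5 days, cells were fixed and their nuclei stained in one step (final 0.05% Triton X-100, 1% formaldehyde, 1 ug/ml Hoechst), then counted on 4× images. Relative viability is the nuclei count in treated wells divided by that in vehicle wells. Values are medians of duplicate plates.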

[1] = compound: C1COCCN1C2=NC(=NC3=C2OC4=C3C=CC=N4)C5=CC(=CC=C5)NC(=O)C6=CN=C(C=C6)N + CC(C)C[C@H](NC(=O)[C@H](Cc1ccccc1)NC(=O)c1cnccn1)B(O)O [Bortezomib] (partner 0.002 µM)
Procedure, shortened: as §1

SGI-1776 + Lapatinib = compound: CN1CCC(CNc2ccc3ncc(-c4cccc(OC(F)(F)F)c4)n3n2)CC1 [SGI-1776] + CS(=O)(=O)CCNCc1ccc(-c2ccc3ncnc(Nc4ccc(OCc5cccc(F)c5)c(Cl)c4)c3c2)o1 [Lapatinib] (partner 2 µM)
Procedure, shortened: as §1

SGI-1776 + Pemetrexed = compound: CN1CCC(CNc2ccc3ncc(-c4cccc(OC(F)(F)F)c4)n3n2)CC1 [SGI-1776] + Nc1nc2[nH]cc(CCc3ccc(C(=O)N[C@@H](CCC(=O)O)C(=O)O)cc3)c2c(=O)[nH]1 [Pemetrexed] (partner 0.2 µM)
Procedure, shortened: as §1

UMC-11
relative viability (Entinostat + Navitoclax; first compound 0.02 µM): 0.29 | relative viability (Entinostat + Navitoclax; first compound 0.06325 µM): 0.302 | relative viability (Entinostat + Navitoclax; first compound 0.2 µM): 0.25 | relative viability (Entinostat + Navitoclax; first compound 0.6325 µM): 0.117 | relative viability (Entinostat + Navitoclax; first compound 2 µM): 0.115 | relative viability ([1]; first compound 0.02 µM): 0.79 | relative viability ([1]; first compound 0.06325 µM): 0.838 | relative viability ([1]; first compound 0.2 µM): 0.669 | relative viability ([1]; first compound 0.6325 µM): 1.08 | relative viability ([1]; first compound 2 µM): 0.519 | relative viability (SGI-1776 + Lapatinib; first compound 0.08 µM): 0.907 | relative viability (SGI-1776 + Lapatinib; first compound 0.8 µM): 1.12 | relative viability (SGI-1776 + Lapatinib; first compound 2.53 µM): 1.11 | relative viability (SGI-1776 + Lapatinib; first compound 8 µM): 0.644 | relative viability (SGI-1776 + Pemetrexed; first compound 0.08 µM): 0.828 | relative viability (SGI-1776 + Pemetrexed; first compound 0.8 µM): 0.864 | relative viability (SGI-1776 + Pemetrexed; first compound 2.53 µM): 0.699 | relative viability (SGI-1776 + Pemetrexed; first compound 8 µM): 0.558
